Experimental findings from patent EP0099673A2, “Prostaglandin D derivatives, process for their preparation and compositions containing them” (ONO PHARMACEUTICAL CO., LTD., priority 1982, dated 1984) are described below.

For the assay, the system named is human myelogenous leukemic cells (HL-60). Nature of the assay: Test on inhibition of proliferation using human myelogenous leukemic cells (HL-60). The assay is classed as cell-based. The settings on record: for Percentage Inhibition: HL-60, compound at 5 pg/ml, 4 days at 37 C, relative to control (0.1% ethanol); for Surviving Cell Number: HL-60, start 1 x 10^5 cells/ml, compound at 5 pg/ml, stationary culture at 37 C for 4 days, Trypan Blue staining, control 29.4 x 10^4. On the procedure: rest on Inhibition of Proliferation Using Human Myeloqenous Leukemic Cells (HL-60)
The test on the inhibition of proliferation of human myelogenous leukemic cells was conducted by a well-known method. The human myelogenous leukemic cells (HL-60) were added to an RPMI culture solution containing 10% bovine fetal serum, the number of cells in the culture solution was adjusted to 1 x 10^5 cells/ml, a solution in ethanol of the compound under test was added to give a concentration of 5 pg/ml, and the mixture was subjected to stationary culture at 37 C for 4 days. As a control, a culture solution to which 0.1% of ethanol had been added was similarly cultured. After the cultivation, the culture solutions were stained by the Trypan Blue staining method and the surviving cell number was measured to determine the percentage inhibition relative to the control.

`CCCCCC=CC=C1C(=O)C=C[C@@H]1CC(=O)CCCCC(=O)OC` [Methyl (9Z,12EZ,14EZ)-6,11-dioxoprosta-9,12,14-trienoate]: the “Percentage Inhibition” value came to 100% and the “Surviving Cell Number” value amounted to 0 cells/ml.

As for “Methyl (13E)-(9α,15S)-6,11-dioxo-9,15- dihvdroxvprost-13-enoate [6-Keto-PGD1 methyl ester]”, the “Percentage Inhibition” value is given as 100% and the “Surviving Cell Number” value came out at 0 cells/ml.

Regarding `CCCCCC=CC=C1C(=O)C[C@H](O)[C@@H]1CC(=O)CCCCC(=O)OC` [(12EZ,14EZ)-(9α)-6,11-Dioxo-9-hydroxyprosta-12,14-dienoic acid methyl ester], the “Percentage Inhibition” value is 100% and the “Surviving Cell Number” value is recorded as 0 cells/ml.
